Data on 2 compounds can be found in patent publication US10471032B1, “Substituted glutaurine compounds and substituted glutaurine derivatives” (ThermoLife International, LLC, priority 2013, dated 2019).

In assay [1] the test system is estradiol and total testosterone. As to conditions: men treated, Taxel et al. (2001); cited from earlier work.
A further assay deals with triiodothyronine (T3). Briefly: Total T3 level in blood samples during oral administration to a human subject. The assay is classed as in vivo. As to conditions: for T3: total T3, blood, one human subject, Day 0 before dosing 91. The procedure: (§1) To evaluate the effect of administration of glutaurine on estradiol and thyroid hormone levels in a human subject, approximately 800 micrograms (mcg) per day of glutaurine were administered orally to the subject over a period of about one month. At Day 0 prior to administration of the glutaurine and at Day 4 and Day 28 during administration of the glutaurine blood samples were collected and analyzed for the levels of estradiol, thyroid stimulating hormone (TSH), and the thyroid hormones triiodothyronine (T3) and thyroxine (T4). Total amounts of T3 and T4 were measured in the blood samples.

The subject of the next assay is estradiol. The assay is described as follows: Estradiol level in blood samples during oral administration to a human subject. The assay is classed as in vivo. The settings on record: for Estradiol: blood, one human subject, Day 0 before dosing 36. The procedure:
as §1

The subject of a further assay is thyroxine (T4). The assay is described as follows: Total T4 level in blood samples during oral administration to a human subject. The assay is classed as in vivo. The settings on record: for T4: total T4, blood, one human subject, Day 0 before dosing 8.3. The method, then:
as §1

For the next assay, the system named is human subject. Briefly: Subject-reported effects during administration. The class given is in vivo. The settings on record: oral approx. 800 mcg/day. The method, then: as §1
The subject also reported fat loss as a result of the glutaurine administration.

Assay [2] concerns thyroid stimulating hormone (TSH). The assay is described as follows: TSH level in blood samples during oral administration to a human subject. The settings on record: for TSH: blood, one human subject, Day 0 before dosing 3.01. The assay is classed as in vivo. The procedure:
as §1

Where [3] appears, read: oral approx. 800 mcg/day for about one month, human subject.
The mark [4] stands for this setting: Day 4 of oral approx. 800 mcg/day.
Where [5] appears, read: Day 28 of oral approx. 800 mcg/day.
The mark [6] stands for this setting: indicative of rising energy expenditure and metabolism.

For `CC(C)(C#N)c1cc(Cn2cncn2)cc(C(C)(C)C#N)c1` [anastrozole], in assay [1], the change in estradiol result was “significant decrease” and the “change in total testosterone” value is reported as “increase”.

Regarding `NC(CCC(=O)NCCS(=O)(=O)O)C(=O)O` (centres unmarked) [glutaurine], the “change in T3 levels” value in the assay on triiodothyronine (T3) (setting [3]) was “consistent increase”. The T3 in the assay on triiodothyronine (T3) (setting [4]) was found to be 96 ng/dL; in the assay on triiodothyronine (T3) (setting [5]), 109 ng/dL. Moreover, the Estradiol in the assay with estradiol (setting [4]) is 32 pg/mL; with estradiol (setting [5]) it was 30 pg/mL. Further, the “change in estradiol levels” value in the assay with estradiol (setting [3]) is listed as “marked decrease”. Further, in the assay with thyroxine (T4) (setting [3]), the “change in T4 levels” value is “slightly reduced”. Besides, the T4 with thyroxine (T4) (setting [4]) was determined as 7.9 µg/dL; in the assay with thyroxine (T4) (setting [5]), 7.3 µg/dL. Further, the “body fat (subject-reported)” value in the assay on human subject is reported as “fat loss”. Further, the “body temperature (subject-reported)” value in the assay with human subject (setting [6]) is “increased body temperature”. The “sweating (subject-reported)” value in the assay on human subject (setting [6]) was “increased sweating”. The TSH in assay [2] (setting [4]) is reported as 3.28 mIU/L; in assay [2] (setting [5]), 2.74 mIU/L. The “change in TSH levels” value in assay [2] (setting [3]) was “no significant change”.
